Experiments:
Format in all cases: in vivo
Plutella xylostella [1] = assay: Example B4: Plutella xylostella (diamond back moth), artificial diet, eggs; conditions: Plutella xylostella, 192 h; application rate of 200 ppm; 8 days after infestation; read-out: control in at least one of the two categories (mortality or growth inhibition)
Description: 24-well microtiter plates with artificial diet were treated with aqueous test solutions prepared from 10′000 ppm DMSO stock solutions by pipetting. After drying, Plutella eggs were pipetted through a plastic stencil onto a gel blotting paper and the plate was closed with it. The samples were assessed for mortality and growth inhibition in comparison to untreated samples 8 days after infestation.

Spodoptera littoralis [2] = assay: Example B6: Spodoptera littoralis, uptake by lettuce roots from agar; conditions: 144 h, test rate of 12.5 ppm, 6 days after infestation, read-out: effect in at least one of the three categories (mortality, anti-feeding, or growth inhibition)
Text: Test compounds were applied by pipette from 10,000 ppm DMSO stock solutions into 24-well plates and mixed with agar. Lettuce seeds were placed onto the agar and the multi well plate was closed by another plate which contained also agar. After 7 days the compound was absorbed by the roots and the lettuce grew into the lid plate. The lettuce leaves were then cut off into the lid plate. Spodoptera eggs were pipetted through a plastic stencil onto a humid gel blotting paper and the lid plate was closed with it. The samples were assessed for mortality, anti-feedant effect and growth inhibition in comparison to untreated samples 6 days after infestation.

Myzus persicae [3] = assay: Example B7: Myzus persicae (green peach aphid), 96-well sucrose solution; conditions: 120 h, application rate of 50 ppm, 5 days after infestation
Description: Test compounds prepared from 10′000 ppm DMSO stock solutions were applied by a liquid handling robot into 96-well microtiter plates and mixed with a sucrose solution. Parafilm was stretched over the 96-well microtiter plate and a plastic stencil with 96 holes was placed onto the plate. Aphids were sieved into the wells directly onto the Parafilm. The infested plates were closed with a gel blotting card and a second plastic stencil and then turned upside down. The samples were assessed for mortality 5 days after infestation.

Diabrotica balteata = assay: Example B2: Diabrotica balteata (corn root worm), maize sprouts, L2 larvae; conditions: for percent control (mortality or growth inhibition) at 200 ppm: Diabrotica balteata, 96 h, application rate of 200 ppm, 4 days after infestation, read-out: control in at least one of the two categories (mortality or growth inhibition)
Description: Maize sprouts placed onto an agar layer in 24-well microtiter plates were treated with aqueous test solutions prepared from 10,000 ppm DMSO stock solutions by spraying. After drying, the plates were infested with L2 larvae (6 to 10 per well). The samples were assessed for mortality and growth inhibition in comparison to untreated samples 4 days after infestation.

Myzus persicae [4] = assay: Example B3: Myzus persicae (green peach aphid) intrinsic activity; conditions: 120 h, test rate of 12 ppm, 5 days after infestation
Description: Test compounds prepared from 10′000 ppm DMSO stock solutions were applied by pipette into 24-well microtiter plates and mixed with sucrose solution. The plates were closed with a stretched Parafilm. A plastic stencil with 24 holes was placed onto the plate and infested pea seedlings were placed directly on the Parafilm. The infested plate was closed with a gel blotting paper and another plastic stencil and then turned upside down. The samples were assessed for mortality 5 days after infestation.

Chilo suppressalis = assay: Example B1: Chilo suppressalis (striped rice stemborer), artificial diet, L2 larvae; conditions: 144 h, application rate of 200 ppm, 6 days after infestation, read-out: control in at least one of the three categories (mortality, anti-feedant effect, or growth inhibition)
Description: 24-well microtiter plates with artificial diet were treated with aqueous test solutions prepared from 10,000 ppm DMSO stock solutions by pipetting. After drying, the plates were infested with L2 larvae (6-8 per well). The samples were assessed for mortality, anti-feeding effect, and growth inhibition in comparison to untreated samples 6 days after infestation. Control of Chilo suppressalis by a test sample is given when at least one of the categories mortality, anti-feedant effect, and growth inhibition is higher than the untreated sample.

Spodoptera littoralis [5] = assay: Example B5: Spodoptera littoralis (Egyptian cotton leaf worm), cotton leaf discs, L1 larvae; conditions: foliar, 72 h, application rate of 200 ppm, 3 days after infestation, read-out: control in at least one of the three categories (mortality, anti-feedant effect, or growth inhibition)
Description: Cotton leaf discs were placed onto agar in 24-well microtiter plates and sprayed with aqueous test solutions prepared from 10,000 ppm DMSO stock solutions. After drying the leaf discs were infested with five L1 larvae. The samples were assessed for mortality, anti-feeding effect, and growth inhibition in comparison to untreated samples 3 days after infestation. Control of Spodoptera littoralis by a test sample is given when at least one of the categories mortality, anti-feedant effect, and growth inhibition is higher than the untreated sample.

Plutella xylostella [6] = assay: Example B8: Plutella xylostella (diamondback moth), 96-well artificial diet; conditions: 216 h, application rate of 500 ppm, 9 days after infestation
Description: 96-well microtiter plates containing artificial diet were treated with aqueous test solutions, prepared from 10,000 ppm DMSO stock solutions, by a liquid handling robot. After drying, eggs (˜30 per well) were infested onto a netted lid which was suspended above the diet. The eggs hatch and L1 larvae move down to the diet. The samples were assessed for mortality 9 days after infestation.

Myzus persicae [7] = assay: Example B9: Myzus persicae (green peach aphid) feeding/contact activity, sunflower leaf discs; conditions: foliar, 144 h, application rate of 200 ppm, 6 days after infestation
Description: Sunflower leaf discs were placed onto agar in a 24-well microtiter plate and sprayed with aqueous test solutions prepared from 10,000 ppm DMSO stock solutions. After drying, the leaf discs were infested with an aphid population of mixed ages. The samples were assessed for mortality 6 days after infestation.

Structure (SMILES) | percent control (mortality or growth inhibition) at 200 ppm (Plutella xylostella [1]) [%] | percent effect (mortality, anti-feeding or growth inhibition) at 12.5 ppm (Spodoptera littoralis [2]) [%] | mortality at 50 ppm (Myzus persicae [3]) [%] | percent control (mortality or growth inhibition) at 200 ppm (Diabrotica balteata) [%] | mortality at 12 ppm (Myzus persicae [4]) [%] | percent control (mortality, anti-feedant effect or growth inhibition) at 200 ppm (Chilo suppressalis) [%] | percent control (mortality, anti-feedant effect or growth inhibition) at 200 ppm (Spodoptera littoralis [5]) [%] | mortality at 500 ppm (Plutella xylostella [6]) [%] | mortality at 200 ppm (Myzus persicae [7]) [%] | mortality at 50 ppm (Diabrotica balteata; Concentration 50 ppm, Diabrotica balteata (Example B32)) [%]
C[C@H](NC(=O)c1cc(C(F)(F)F)cc(C(F)(F)F)c1)c1nccnc1-c1cnccn1 [Compound E3, N-[(1S)-1-(3-pyrazin-2-ylpyrazin-2-yl)ethyl]-3,5-bis(trifluoromethyl)benzamide] | ≥ 80 | ≥ 80 | ≥ 80 | ≥ 80 | ≥ 80 | ≥ 80 | ≥ 80 | ≥ 80 |  | 
CC(NC(=O)c1cc(F)cc(C(F)(F)F)c1)c1nccnc1-c1cnccn1 (centres unmarked) [Compound P25, 3-fluoro-N-[1-(3-pyrazin-2-ylpyrazin-2-yl)ethyl]-5-(trifluoromethyl)benzamide] | ≥ 80 |  |  |  |  |  |  |  | ≥ 80 | 
CC(NC(=O)c1cc(I)cc(I)c1)c1nccnc1-c1cnccn1 (centres unmarked) [Compound P17, 3,5-diiodo-N-[1-(3-pyrazin-2-ylpyrazin-2-yl)ethyl]benzamide] | ≥ 80 |  |  | ≥ 80 |  |  | ≥ 80 |  | ≥ 80 | 
CC(NC(=O)c1cc(Br)cc(C(F)(F)F)c1)c1nccnc1-c1cnccn1 (centres unmarked) [Compound P7, 3-bromo-N-[1-(3-pyrazin-2-ylpyrazin-2-yl)ethyl]-5-(trifluoromethyl)benzamide] | ≥ 80 |  |  | ≥ 80 |  | ≥ 80 | ≥ 80 |  | ≥ 80 | 
CC(NC(=O)c1cc(Cl)nc(C(F)(F)F)c1)c1nccnc1-c1cnccn1 (centres unmarked) [Compound P14, 2-chloro-N-[1-(3-pyrazin-2-ylpyrazin-2-yl)ethyl]-6-(trifluoromethyl)pyridine-4-carboxamide] | ≥ 80 |  |  | ≥ 80 |  | ≥ 80 | ≥ 80 |  | ≥ 80 | 
CC(NC(=O)c1cc(C(F)(F)F)cc(C2(C#N)CC2)c1)c1nccnc1-c1cnccn1 (centres unmarked) [Compound P21] | ≥ 80 |  |  | ≥ 80 | ≥ 80 | ≥ 80 | ≥ 80 |  | ≥ 80 | 100
CC(NC(=O)c1cc(Cl)cc(Br)c1)c1nccnc1-c1cnccn1 (centres unmarked) [Compound P12, 3-bromo-5-chloro-N-[1-(3-pyrazin-2-ylpyrazin-2-yl)ethyl]benzamide] | ≥ 80 |  |  | ≥ 80 |  |  | ≥ 80 |  | ≥ 80 | 
Cc1cc(C(=O)NC(C)c2nccnc2-c2cnccn2)cc(C(F)(F)F)c1 (centres unmarked) [Compound P18, 3-methyl-N-[1-(3-pyrazin-2-ylpyrazin-2-yl)ethyl]-5-(trifluoromethyl)benzamide] | ≥ 80 |  |  |  |  | ≥ 80 |  |  | ≥ 80 | 

— patent US20240287047A1, “PESTICIDALLY ACTIVE DIAZINE-AMIDE COMPOUNDS” (SYNGENTA CROP PROTECTION AG, priority 2021, published 2024)
